Values quoted from earlier work as cited in patent US20040132663A1 (University of Utah Research Foundation, priority 2000, published 2004).

Conditions: in vivo

contulakin-G
potency in inhibiting pain relative to neurotensin: significantly more potent than neurotensin
